Measurements reported in patent US20260034125A1, “N-PHENYL-1-(PHENYLSULFONYL)PIPERIDIN-4-AMINE DERIVATIVES AS CCR6 INHIBITORS” (priority 2023, published 2026).

Columns and labels:
Assay type in all cases: cell-based
human CCR6 [1] = molecular target: T1, human CCR6 (Homo sapiens, UniProt P51684); assay: CHO-K1 CCR6 chemotaxis assay towards CCL20; details: relative -LogIC50; CHO-K1 cells overexpressing human CCR6, 100 ng/ml CCL20, Transwell, 4 h
T1 sequence (P51684 1-374): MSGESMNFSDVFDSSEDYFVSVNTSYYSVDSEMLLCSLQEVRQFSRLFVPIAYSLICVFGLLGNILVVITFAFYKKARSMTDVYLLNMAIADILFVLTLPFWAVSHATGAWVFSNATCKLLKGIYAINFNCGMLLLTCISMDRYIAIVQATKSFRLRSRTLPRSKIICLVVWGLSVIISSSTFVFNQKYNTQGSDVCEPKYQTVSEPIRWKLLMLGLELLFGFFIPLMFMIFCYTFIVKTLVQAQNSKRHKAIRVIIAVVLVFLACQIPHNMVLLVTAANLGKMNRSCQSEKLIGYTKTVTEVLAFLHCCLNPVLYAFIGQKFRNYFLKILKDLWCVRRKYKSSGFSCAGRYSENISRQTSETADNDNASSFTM
Excerpt: Cells overexpressing human CCR6 were used in the chemotaxis assay (DiscoverX, CAMP Hunter™ CHO-K1 CCR6 Gi Cell Line). Growth medium of these cells consisted of DMEM/F12, non-essential Amino acids (1×NEAA, Gibco 11140050), 10% FBS and 1× pen/strep (Gibco 15140). For the chemotaxis assay, Corning Transwell plates were used with a pore size of 8 μm (Corning 351164). Cells were harvested using trypsin and diluted to 4*10^6 cells/ml in chemotaxis medium (DMEM, 0.25% BSA, pen/strep). Compounds were four-fold serially diluted in DMSO. Further dilutions were made in chemotaxis medium. Cells were incubated with test compounds for 30 min at 37° C. prior to initiation of the assay (2*10^6 cells/ml). Final DMSO concentration in the assay was 0.2%. Wells of the Transwell plates were filled with 200 μl chemotaxis medium containing 100 ng/ml CCL20 (R&D systems 360-MP). 50 μl of the cell/compound suspension was added to the inserts of the Transwell plates (100,000 cells/insert). The Transwell plates were placed in an incubator at 37° C., 5% CO2 for 4 h. After 4 h, the number of migrated cells was quantified using CellTiter Glo (Promega). Percentage inhibition values were calculated based on the low and high signal obtained with 0.2% DMSO in chemotaxis medium without and with CCL20, respectively. The relative-LogIC50 was determined with GraphPad Prism 9 using a four-parameter dose-response model.

human CCR6 [2] = molecular target: T1, human CCR6; assay: Human CCR6-Cre reporter assay; parameters: The second construct contained the open reading frame of human CCR6 in the pUNO1 backbone; host or cells: 293 FT cells; details: relative -LogIC50; transfected 293 FT cells, 6 μM Forskolin, 6 nM CCL20, luciferase readout, 5h
Protocol: 293 FT cells were transfected with 2 constructs using TransIT-293 (Mirus). The first construct (pGL4.29, Promega) expressed the luciferase reporter gene luc2P in response to the binding of cAMP-induced CREB to the CRE element in its promoter. The second construct contained the open reading frame of human CCR6 in the pUNO1 backbone under the control of an enhanced CMV promoter (In VivoGen). 48h after transfection, cells were harvested and diluted to 750,000 cells/ml in culture medium (DMEM, 10% FBS, 1× pen/strep (Gibco 15140)). Compounds were 2.5-fold serially diluted in DMSO. Further dilutions were made in assay medium (DMEM, 10% FBS, 1× pen/strep, 6 μM Forskolin, 6 nM CCL20). 4 μl of the compound solution was added to a white MW384 plate, followed by 20 μl of the cell suspension. Final DMSO concentration in the assay was 0.1%. The MW384 plate was placed in an incubator at 37° C., 5% CO2 for 5h. Luciferase activity was determined by addition of 24 μl of a 2.5× diluted BriteLite luciferase solution (Perkin Elmer), followed by luminescence measurement using a VICTOR Plate reader (Perkin Elmer). […] The relative-LogIC50 was determined with GraphPad Prism 9 using a four-parameter dose-response model.

Human CD4+ T cells = assay: CD4+ T cell chemotaxis assay towards CCL20; details: relative -LogIC50, 150 ng/ml CCL20, Transwell, 3 h
Excerpt: Human CD4+ T cells were isolated from buffy coats of healthy donors using a CD4+ T Cell Isolation Kit (Miltenyi Biotec130-096-533). Isolated T cells were stimulated overnight with anti-CD3 and anti-CD28 antibodies (Biolegend 300314/302934) in growth medium (RPMI1640, 10% heat-inactivated FBS, 1× pen/strep (Gibco 15140)). For the chemotaxis assay, Corning Transwell plates were used with a pore size of 5 μm (Corning 3388). T cells were counted and diluted to 6*10^6 cells/ml in chemotaxis medium (RPMI1640, 1% BSA, pen/strep). Compounds were four-fold serially diluted in DMSO. Further dilutions were made in chemotaxis medium. Cells were incubated with test compounds for 30 min at 37° C. prior to initiation of the assay (3*10^6 cells/ml). Final DMSO concentration in the assay was 0.2%. Wells of the Transwell plates were filled with 200 μl chemotaxis medium containing 150 ng/ml CCL20 (R&D systems 360-MP). 50 μl of the cell/compound suspension was added to the inserts of the Transwell plates (150,000 cells/insert). The Transwell plates were placed in an incubator at 37° C., 5% CO2 for 3 h. After 3 h, the number of migrated cells was quantified using CellTiter Glo (Promega). Percentage inhibition values were calculated based on the low and high signal obtained with 0.2% DMSO in chemotaxis medium without and with CCL20, respectively. The relative −LogIC50 was determined with GraphPad Prism 9 using a four-parameter dose-response model.

SMILES	IC50 (human CCR6 [1]) [nM]	IC50 (human CCR6 [2]) [nM]	IC50 (Human CD4+ T cells) [nM]
Cc1cnc2ccc(-c3ccc(S(=O)(=O)N4CCC(Nc5ccc(C6(C(F)(F)F)CC6)cc5)CC4)cc3)cn12 [Example 3, 1-(4-{3-methylimidazo[1,2-a]pyridin-6-yl}benzenesulfonyl)-N-{4-[1-(trifluoromethyl)cyclopropyl]phenyl}piperidin-4-amine]	63.1	79.4	
CNC(=O)c1cccc(-c2ccc(S(=O)(=O)N3CCC(Nc4ccc(C5(C(F)(F)F)CC5)cc4)CC3)cc2)c1 [Example 4, N-methyl-4′-{[4-({4-[1-(trifluoromethyl)cyclopropyl]phenyl}Amino)piperidin-1-yl]sulfonyl}-[1,1′-biphenyl]-3-carboxamide]	25.1	79.4	
CNC(=O)c1ccc(-c2ccc(S(=O)(=O)N3CCC(Nc4ccc(C5(C(F)(F)F)CC5)cc4)CC3)cc2)cc1 [Example 5, N-methyl-4′-{[4-({4-[1-(trifluoromethyl)cyclopropyl]phenyl}Amino)piperidin-1-yl]sulfonyl}-[1,1′-biphenyl]-4-carboxamide]	158	158	
CNC(=O)c1ccc(-c2ccc(S(=O)(=O)N3CCC(Nc4ccc(C5(C(F)(F)F)CC5)cc4)CC3)cc2)cn1 [Example 6, N-methyl-5-(4-{[4-({4-[1-(trifluoromethyl)cyclopropyl]phenyl}Amino)piperidin-1-yl]sulfonyl}phenyl)pyridine-2-carboxamide]	126	126	
NC(=O)c1ccc(-c2ccc(S(=O)(=O)N3CCC(Nc4ccc(C5(C(F)(F)F)CC5)cc4)CC3)cc2)cc1 [Example 7, 4′-{[4-({4-[1-(trifluoromethyl)cyclopropyl]phenyl}Amino)piperidin-1-yl]sulfonyl}-[1,1′-biphenyl]-4-carboxamide]	126	200	
Cc1c[nH]c2ncc(-c3ccc(S(=O)(=O)[C@H]4CC[C@H](Nc5ccc(C6(C(F)(F)F)CC6)cc5)CC4)cc3)cc12 [Example 21, N-[(trans)-4-(4-{3-methyl-1H-pyrrolo[2,3-b]pyridin-5-yl}benzenesulfonyl)cyclohexyl]-4-[1-(trifluoromethyl)cyclopropyl]aniline]		63.1	1.58
Cc1n[nH]c2ncc(-c3ccc(S(=O)(=O)[C@H]4CC[C@H](Nc5ccc(C6(C(F)(F)F)CC6)cc5)CC4)cc3)cc12 [Example 22, N-[(trans)-4-(4-{3-methyl-1H-pyrazolo[3,4-b]pyridin-5-yl}benzenesulfonyl)cyclohexyl]-4-[1-(trifluoromethyl)cyclopropyl]aniline]		100	2.51
CC(C)c1nnc2ccc(-c3ccc(S(=O)(=O)[C@H]4CC[C@H](Nc5ccc(C6(C#N)CC6)cn5)CC4)cc3)cn12 [Example 30, 1-(6-{[(trans)-4-{4-[3-(propan-2-yl)-[1,2,4]triazolo[4,3-a]pyridin-6-yl]benzenesulfonyl}cyclohexyl]amino}pyridin-3-yl)cyclopropane-1-carbonitrile]		200	251
CC(C)c1nnc2ccc(-c3ccc(S(=O)(=O)N4CCC(Nc5ccc(C6(C#N)CC6)cn5)CC4)cc3)cn12 [Example 31, 1-{6-[(1-{4-[3-(propan-2-yl)-[1,2,4]triazolo[4,3-a]pyridin-6-yl]benzenesulfonyl}piperidin-4-yl)amino]pyridin-3-yl}cyclopropane-1-carbonitrile]		200	79.4
Cc1cc(-c2ccc(S(=O)(=O)N3CCC(Nc4ccc(C5(C#N)CC5)cn4)CC3)cc2)cn2c(C(C)C)nnc12 [Example 32, 1-{6-[(1-{4-[8-methyl-3-(propan-2-yl)-[1,2,4]triazolo[4,3-a]pyridin-6-yl]benzenesulfonyl}piperidin-4-yl)amino]pyridin-3-yl}cyclopropane-1-carbonitrile]		200	126
N#CC1(c2ccc(NC3CCN(S(=O)(=O)c4ccc(-c5ccc6n[nH]c(=O)n6c5)cc4)CC3)nc2)CC1 [Example 35, 1-(6-{[1-(4-{3-oxo-2H,3H-[1,2,4]triazolo[4,3-a]pyridin-6-yl}benzenesulfonyl)piperidin-4-yl]amino}pyridin-3-yl)cyclopropane-1-carbonitrile]		398	1580
CC(C)c1nnc2ccc(-c3ccc(S(=O)(=O)N4CCC(Nc5ccc(C6(C(F)(F)F)CC6)cn5)CC4)cc3)cn12 [Example 36, N-(1-{4-[3-(propan-2-yl)-[1,2,4]triazolo[4,3-a]pyridin-6-yl]benzenesulfonyl}piperidin-4-yl)-5-[1-(trifluoromethyl)cyclopropyl]pyridin-2-amine]		31.6	3.16
O=S(=O)(c1ccc(-c2ccc3nccn3c2)cc1)N1CCC(Nc2ccc(C3(C(F)(F)F)CC3)cn2)CC1 [Example 37, N-[1-(4-{imidazo[1,2-a]pyridin-6-yl}benzenesulfonyl)piperidin-4-yl]-5-[1-(trifluoromethyl)cyclopropyl]pyridin-2-amine]		100	5.01
CC(C)c1nnc2cnc(-c3ccc(S(=O)(=O)N4CCC(Nc5ccc(C6(C(F)(F)F)CC6)cc5)CC4)cc3)cn12 [Example 41, 1-{4-[3-(propan-2-yl)-[1,2,4]triazolo[4,3-a]pyrazin-6-yl]benzenesulfonyl}-N-{4-[1-(trifluoromethyl)cyclopropyl]phenyl}piperidin-4-amine]		63.1	3.98
Cc1nnc2ccc(-c3ccc(S(=O)(=O)N4CCC(Nc5ccc(C6(C(F)(F)F)CC6)cc5)CC4)cc3)cn12 [Example 42, 1-(4-{3-methyl-[1,2,4]triazolo[4,3-a]pyridin-6-yl}benzenesulfonyl)-N-{4-[1-(trifluoromethyl)cyclopropyl]phenyl}piperidin-4-amine]		126	6.31
O=c1[nH]nc2ccc(-c3ccc(S(=O)(=O)N4CCC(Nc5ccc(C6(C(F)(F)F)CC6)cc5)CC4)cc3)cn12 [Example 43, 6-(4-{[4-({4-[1-(trifluoromethyl)cyclopropyl]phenyl}amino)piperidin-1-yl]sulfonyl}phenyl)-2H,3H-[1,2,4]triazolo[4,3-a]pyridin-3-one]		100	12.6
